Patent publication US20200024278A1, “COMPOSITION COMPRISING ANTIBIOTIC COMPOUND AND AN HETEROCYCLIC COMPOUND AND THEIR USE IN PREVENTING OR TREATING BACTERIAL INFECTIONS” (MUTABILIS, priority 2016, published 2020)
Like-named read-outs stand apart in the source and are kept apart here.

How the values were obtained:
Assay in all cases: MIC, broth microdilution (CLSI), substance alone or ATB combined with compound at 4 or 8 μg/mL
[1] = system: SPN 49619; format: cell-based, S. pneumoniae; details: SPN 49619; for MIC: Streptococcus pneumoniae
Protocol: (§1) Compounds of the present invention were assessed against genotyped bacterial strains alone or in combination with an antibacterial. In the assays, MICs of said compounds or combination of antibiotics with fixed concentrations of said compounds (4 or 8 μg/mL) were determined by the broth microdilution method according to the Clinical Laboratory Standards Institute (CLSI-M7-A7). Briefly, compounds alone according to the invention were prepared in DMSO and spotted (2 μL each) on sterile polystyrene plates (Corning, 3788). Combinations of compounds and antibiotics dilutions were prepared in DMSO and spotted (1 μL each) on sterile polystyrene plates (Corning, 3788). Log phase bacterial suspensions were adjusted to a final density of 5·10^5 CFU/mL in cation-adjusted Mueller-Hinton broth (ca-MHB; Becton-Dickinson and Company) and added to each well (98 μL). Assays including Fosfomycin were supplemented with 25 μg/ml of Glucose-6-phosphate. Microplates were incubated for 16-20 h at 35° C. in ambient air. The MIC of the compounds was defined as the lowest concentration of said compounds that prevented bacterial growth as read by visual inspection. The MIC of ATB at each compound concentration was defined as the lowest concentration of ATB that prevented bacterial growth as read by visual inspection.

[2] = system: SAU 29213; format: cell-based, S. aureus; details: SAU 29213
Protocol: as §1

[3] = system: PAE 105250; format: cell-based, P. aeruginosa; details: PAE 105250; for MIC: Pseudomonas aeruginosa
Protocol: as §1

[4] = system: ECO 190317; format: cell-based, E. coli; details: ECO 190317
Protocol: as §1

[5] = system: PAE UFR90; format: cell-based, P. aeruginosa; details: PAE UFR90
Protocol: as §1

[6] = system: PAE UFR48; format: cell-based, P. aeruginosa; details: PAE UFR48
Protocol: as §1

[7] = system: ECO UFR39; format: cell-based, E. coli; details: ECO UFR39; with Example 13 at 8 μg/ml
Protocol: as §1

[8] = system: ECL P99; format: cell-based, E. cloacae; details: ECL P99
Protocol: as §1

[9] = antibiotic alone, read-out: MIC ATB alone

CN[C@H](CC(C)C)C(=O)N[C@H]1C(=O)N[C@@H](CC(N)=O)C(=O)N[C@H]2C(=O)N[C@H]3C(=O)N[C@H](C(=O)N[C@H](C(=O)O)c4cc(O)cc(O)c4-c4cc3ccc4O)[C@H](O)c3ccc(c(Cl)c3)Oc3cc2cc(c3O[C@@H]2O[C@H](CO)[C@@H](O)[C@H](O)[C@H]2O[C@H]2C[C@](C)(N)[C@H](O)[C@H](C)O2)Oc2ccc(cc2Cl)[C@H]1O [VAN]
MIC ATB alone ([1]; antibiotic alone): 0.25 µg/mL
MIC ATB combined with Example 1 @8 μg/ml [1]: 0.25 µg/mL
MIC ATB combined with Example 9 @4 μg/ml ([1]; with Example 9 @4 μg/ml): <0.0039 µg/mL
MIC ATB alone ([1]; VAN alone): 0.25 µg/mL
MIC ATB alone ([2]; antibiotic alone): 1 µg/mL
MIC ATB combined with Example 1 @8 μg/ml ([2]; with Example 1 @8 μg/ml): 1 µg/mL
MIC ATB combined with Example 9 @4 μg/ml [2]: <0.0039 µg/mL
MIC ATB alone ([2]; VAN alone): 1 µg/mL

CC[C@H]1OC(=O)[C@H](C)[C@@H](O[C@H]2C[C@@](C)(OC)[C@@H](O)[C@H](C)O2)[C@H](C)[C@@H](O[C@@H]2O[C@H](C)C[C@H](N(C)C)[C@H]2O)[C@](C)(O)C[C@@H](C)C(=O)[C@H](C)[C@@H](O)[C@]1(C)O [ERY]
MIC ATB alone ([1]; ERY alone): 0.063 µg/mL
MIC ATB alone ([1]; antibiotic alone): 0.063 µg/mL
MIC ATB combined with Example 1 @8 μg/ml [1]: 0.063 µg/mL
MIC ATB combined with Example 9 @4 μg/ml ([1]; with Example 9 @4 μg/ml): <0.0020 µg/mL
MIC ATB alone ([2]; ERY alone): 1 µg/mL
MIC ATB alone ([2]; antibiotic alone): 1 µg/mL
MIC ATB combined with Example 1 @8 μg/ml ([2]; with Example 1 @8 μg/ml): 0.25 µg/mL
MIC ATB combined with Example 9 @4 μg/ml [2]: <=0.0020 μg/mL

CC(=O)NC[C@H]1CN(c2ccc(N3CCOCC3)c(F)c2)C(=O)O1 [LZD]
MIC ATB alone ([1]; LZD alone): 1 µg/mL
MIC ATB alone ([1]; antibiotic alone): 1 µg/mL
MIC ATB combined with Example 1 @8 μg/ml [1]: 1 µg/mL
MIC ATB combined with Example 9 @4 μg/ml ([1]; with Example 9 @4 μg/ml): <=0.0078 μg/mL
MIC ATB alone ([2]; LZD alone): 4 µg/mL
MIC ATB alone ([2]; antibiotic alone): 4 µg/mL
MIC ATB combined with Example 1 @8 μg/ml ([2]; with Example 1 @8 μg/ml): 2 µg/mL
MIC ATB combined with Example 9 @4 μg/ml [2]: <0.0078 µg/mL

C[C@H]1[C@H](NC(=O)/C(=N\OC(C)(C)C(=O)O)c2csc(N)n2)C(=O)N1S(=O)(=O)O [ATM, Aztreonam, reference compound]
MIC [1, 9]: > 64 µg/mL
MIC ([1]; substance alone, read-out: MIC): > 64 µg/mL
MIC [3, 9]: 8 µg/mL
MIC ([3]; substance alone, read-out: MIC): 8 µg/mL
MIC ([4]; Escherichia coli, antibiotic alone, read-out: MIC ATB alone): 128 µg/mL

CCC[C@@H]1C[C@@H](C(=O)N[C@@H]([C@H]2O[C@H](SC)[C@H](O)[C@@H](O)[C@H]2O)[C@H](C)Cl)N(C)C1 [CLI]
MIC ATB alone ([1]; CLI alone): 0.125 µg/mL
MIC ATB alone ([1]; antibiotic alone): 0.125 µg/mL
MIC ATB combined with Example 1 @8 μg/ml [1]: 0.063 µg/mL
MIC ATB combined with Example 9 @4 μg/ml ([1]; with Example 9 @4 μg/ml): 0.0039 µg/mL

CO/N=C(\C(=O)N[C@@H]1C(=O)N2C(C(=O)O)=C(CSc3nc(=O)c(O)nn3C)CS[C@H]12)c1csc(N)n1 [CTR]
MIC ATB combined with Example 7 @8 μgml ([1]; with Example 7 at 8 μg/ml): 0.063 µg/mL
MIC ATB combined with Example 9 @4 μg/ml ([1]; with Example 9 @4 μg/ml): <=0.031 μg/mL
MIC ATB combined with Example 9 @4 μg/ml ([1]; with Example 9 at 4 μg/ml): <=0.031 μg/mL
MIC ATB combined with Example 11 @8 μg/ml ([1]; with Example 11 at 8 μg/ml): <=0.031 μg/mL
MIC ATB combined with Example 13 @8 μg/ml ([1]; with Example 13 at 8 μg/ml): <=0.031 μg/mL
MIC ATB combined with Example 15 @4 μgml ([1]; with Example 15 at 4 μg/ml): <=0.031 μg/mL
MIC ATB combined with Example 1 @8 μg/ml ([3]; with Example 1 @8 μg/ml): <0.031 µg/mL
MIC ATB combined with Example 1 @8 μg/ml ([3]; with Example 1 at 8 μg/ml): <0.031 µg/mL
MIC ATB combined with Example 11 @8 μg/ml ([3]; with Example 11 at 8 μg/ml): 32 µg/mL
MIC ATB combined with Example 12 @8 μg/ml ([3]; with Example 12 at 8 μg/ml): >32 µg/mL
MIC ATB combined with Example 14 @8 μg/ml ([3]; with Example 14 at 8 μg/ml): >32 µg/mL
MIC ATB combined with Example 15 @4 μgml ([3]; with Example 15 at 4 μg/ml): 32 µg/mL
MIC ATB combined with Example 16 @4 μg/ml ([3]; with Example 16 at 4 μg/ml): >32 µg/mL
MIC ATB combined with Example 1 @8 μg/ml ([5]; with Example 1 @8 μg/ml): <0.031 µg/mL
MIC ATB combined with Example 1 @8 μg/ml ([5]; with Example 1 at 8 μg/ml): <0.031 µg/mL
MIC ATB combined with Example 7 @8 μgml ([5]; with Example 7 at 8 μg/ml): >32 µg/mL
MIC ATB combined with Example 11 @8 μg/ml ([5]; with Example 11 at 8 μg/ml): 32 µg/mL
MIC ATB combined with Example 12 @8 μg/ml ([5]; with Example 12 at 8 μg/ml): >32 µg/mL
MIC ATB combined with Example 14 @8 μg/ml ([5]; with Example 14 at 8 μg/ml): >32 µg/mL
MIC ATB combined with Example 16 @4 μg/ml ([5]; with Example 16 at 4 μg/ml): >32 µg/mL
MIC ATB combined with Example 1 @8 μg/ml ([6]; with Example 1 @8 μg/ml): <0.031 µg/mL
MIC ATB combined with Example 1 @8 μg/ml ([6]; with Example 1 at 8 μg/ml): <0.031 µg/mL
MIC ATB combined with Example 7 @8 μgml ([6]; with Example 7 at 8 μg/ml): >32 µg/mL
MIC ATB combined with Example 11 @8 μg/ml ([6]; with Example 11 at 8 μg/ml): >32 µg/mL
MIC ATB combined with Example 12 @8 μg/ml ([6]; with Example 12 at 8 μg/ml): >32 µg/mL
MIC ATB combined with Example 15 @4 μgml ([6]; with Example 15 at 4 μg/ml): >32 µg/mL
MIC ATB combined with Example 16 @4 μg/ml ([6]; with Example 16 at 4 μg/ml): >32 µg/mL
MIC ATB combined with Example 13 @8 μg/ml [7]: <0.031 µg/mL
MIC ATB combined with Example 1 @8 μg/ml ([4]; with Example 1 @8 μg/ml): <0.031 µg/mL
MIC ATB combined with Example 1 @8 μg/ml ([4]; with Example 1 at 8 μg/ml): <0.031 µg/mL
MIC ATB combined with Example 13 @8 μg/ml ([4]; with Example 13 at 8 μg/ml): <0.031 µg/mL
MIC ATB combined with Example 1 @8 μg/ml ([8]; with Example 1 @8 μg/ml): <0.031 µg/mL
MIC ATB combined with Example 1 @8 μg/ml ([8]; with Example 1 at 8 μg/ml): <0.031 µg/mL
MIC ATB combined with Example 7 @8 μgml ([8]; with Example 7 at 8 μg/ml): 2 µg/mL
MIC ATB combined with Example 13 @8 μg/ml ([8]; with Example 13 at 8 μg/ml): 1 µg/mL
MIC ATB alone ([2]; antibiotic alone): 8 µg/mL
MIC ATB combined with Example 1 @8 μg/ml ([2]; with Example 1 @8 μg/ml): 4 µg/mL
MIC ATB combined with Example 1 @8 μg/ml ([2]; with Example 1 at 8 μg/ml): 4 µg/mL
MIC ATB combined with Example 7 @8 μgml ([2]; with Example 7 at 8 μg/ml): 2 µg/mL
MIC ATB combined with Example 11 @8 μg/ml ([2]; with Example 11 at 8 μg/ml): <=0.031 μg/mL
MIC ATB combined with Example 13 @8 μg/ml ([2]; with Example 13 at 8 μg/ml): 4 µg/mL

CO[C@H]1/C=C/O[C@@]2(C)Oc3c(C)c(O)c4c(O)c(c(/C=N/N5CCN(C)CC5)c(O)c4c3C2=O)NC(=O)/C(C)=C\C=C\[C@H](C)[C@H](O)[C@@H](C)[C@@H](O)[C@@H](C)[C@H](OC(C)=O)[C@@H]1C [RIF]
MIC ATB alone ([1]; RIF alone): 0.031 µg/mL
MIC ATB alone ([1]; antibiotic alone): 0.031 µg/mL
MIC ATB combined with Example 1 @8 μg/ml [1]: 0.063 µg/mL
MIC ATB combined with Example 9 @4 μg/ml ([1]; with Example 9 @4 μg/ml): 0.00024 µg/mL
MIC ATB alone ([2]; RIF alone): 0.0078 µg/mL
MIC ATB alone ([2]; antibiotic alone): 0.0078 µg/mL
MIC ATB combined with Example 1 @8 μg/ml ([2]; with Example 1 @8 μg/ml): 0.0078 µg/mL
MIC ATB combined with Example 9 @4 μg/ml [2]: 0.002 µg/mL
